Reference: ChEMBL document CHEMBL6114980, “Single or double lipid-modified ultra-short antimicrobial peptides for treating infections caused by resistant bacteria” (Eur J Med Chem, 2025)
In brackets after ≈: the same amount, converted by molar mass. Peptide text beside a SMILES is read from it. * marks the point of attachment. Decanoyl = CCCCCCCCCC(=O)*; Hexanoyl = CCCCCC(=O)*; Butyryl = CCCC(=O)*

Tests used:
Format in all cases: functional
Conditions in all cases: time 18-24 hrs
Bacillus subtilis = assay: Antibacterial activity against Bacillus subtilis ATCC 23857 assessed as reduction in bacterial growth incubated for 18 to 24 hrs by broth microdilution method
Enterococcus faecalis = assay: Antibacterial activity against Enterococcus faecalis ATCC 29212 assessed as reduction in bacterial growth incubated for 18 to 24 hrs by broth microdilution method
[1] = test system: Staphylococcus epidermidis; assay: Antibacterial activity against Staphylococcus epidermidis ATCC 12228 assessed as reduction in bacterial growth incubated for 18 to 24 hrs by broth microdilution method
Pseudomonas aeruginosa = assay: Antibacterial activity against Pseudomonas aeruginosa ATCC 27853 assessed as reduction in bacterial growth incubated for 18 to 24 hrs by broth microdilution method
Acinetobacter baumannii = assay: Antibacterial activity against Acinetobacter baumannii ATCC 19606 assessed as reduction in bacterial growth incubated for 18 to 24 hrs by broth microdilution method
Staphylococcus aureus = assay: Antibacterial activity against Staphylococcus aureus ATCC 25923 assessed as reduction in bacterial growth incubated for 18 to 24 hrs by broth microdilution method
Klebsiella pneumoniae = assay: Antibacterial activity against Klebsiella pneumoniae ATCC 700603 assessed as reduction in bacterial growth incubated for 18 to 24 hrs by broth microdilution method
Escherichia coli = assay: Antibacterial activity against Escherichia coli ATCC 25922 assessed as reduction in bacterial growth incubated for 18 to 24 hrs by broth microdilution method

Compound	MIC (Bacillus subtilis)	MIC (Enterococcus faecalis)	MIC [1]	MIC (Pseudomonas aeruginosa)	MIC (Acinetobacter baumannii)	MIC (Staphylococcus aureus)	MIC (Klebsiella pneumoniae)	MIC (Escherichia coli)
CCCC(=O)N[C@@H](CCCCN)C(=O)N[C@@H](CCCCN)C(=O)N[C@@H](Cc1c[nH]c2ccccc12)C(=O)N[C@@H](Cc1c[nH]c2ccccc12)C(N)=O (Butyryl-KKWW-NH2)	128 µM (≈ 91.6 µg/mL)	128 µM (≈ 91.6 µg/mL)	128 µM (≈ 91.6 µg/mL)	128 µM (≈ 91.6 µg/mL)	128 µM (≈ 91.6 µg/mL)	128 µM (≈ 91.6 µg/mL)	128 µM (≈ 91.6 µg/mL)	128 µM (≈ 91.6 µg/mL)
CCCCCCCCCC(=O)N[C@@H](CCCCN)C(=O)N[C@@H](CCCCN)C(=O)N[C@@H](Cc1c[nH]c2ccccc12)C(=O)N[C@@H](Cc1c[nH]c2ccccc12)C(N)=O (Decanoyl-KKWW-NH2)	4 µM (≈ 3.2 µg/mL)	32 µM (≈ 25.6 µg/mL)	16 µM (≈ 12.8 µg/mL)	8 µM (≈ 6.4 µg/mL)	32 µM (≈ 25.6 µg/mL)	16 µM (≈ 12.8 µg/mL)	32 µM (≈ 25.6 µg/mL)	16 µM (≈ 12.8 µg/mL)
CCCCCC(=O)N[C@@H](CCCCN)C(=O)N[C@@H](CCCCN)C(=O)N[C@@H](Cc1c[nH]c2ccccc12)C(=O)N[C@@H](Cc1c[nH]c2ccccc12)C(N)=O (Hexanoyl-KKWW-NH2)	128 µM (≈ 95.2 µg/mL)	128 µM (≈ 95.2 µg/mL)	128 µM (≈ 95.2 µg/mL)	128 µM (≈ 95.2 µg/mL)	128 µM (≈ 95.2 µg/mL)	128 µM (≈ 95.2 µg/mL)	128 µM (≈ 95.2 µg/mL)	128 µM (≈ 95.2 µg/mL)

Further lines, results first:

MIC (Bacillus subtilis)	MIC (Enterococcus faecalis)	MIC [1]	MIC (Pseudomonas aeruginosa)	MIC (Acinetobacter baumannii)	MIC (Staphylococcus aureus)	MIC (Klebsiella pneumoniae)	MIC (Escherichia coli)	Compound
128 µM (≈ 117 µg/mL)	128 µM (≈ 117 µg/mL)	128 µM (≈ 117 µg/mL)	128 µM (≈ 117 µg/mL)	128 µM (≈ 117 µg/mL)	128 µM (≈ 117 µg/mL)	128 µM (≈ 117 µg/mL)	128 µM (≈ 117 µg/mL)	CCCC(=O)NCCCC[C@H](NC(=O)CCC)C(=O)N[C@@H](CCCCN)C(=O)N[C@@H](CCCCN)C(=O)N[C@@H](Cc1c[nH]c2ccccc12)C(=O)N[C@@H](Cc1c[nH]c2ccccc12)C(N)=O (Butyryl-K(Butyryl)KKWW-NH2)
8 µM (≈ 8.66 µg/mL)	16 µM (≈ 17.3 µg/mL)	8 µM (≈ 8.66 µg/mL)	16 µM (≈ 17.3 µg/mL)	16 µM (≈ 17.3 µg/mL)	16 µM (≈ 17.3 µg/mL)	128 µM (≈ 139 µg/mL)	16 µM (≈ 17.3 µg/mL)	CCCCCCCCCC(=O)NCCCC[C@H](NC(=O)CCCCCCCCC)C(=O)N[C@@H](CCCCN)C(=O)N[C@@H](CCCCN)C(=O)N[C@@H](Cc1c[nH]c2ccccc12)C(=O)N[C@@H](Cc1c[nH]c2ccccc12)C(N)=O (Decanoyl-K(Decanoyl)KKWW-NH2)
64 µM (≈ 62.1 µg/mL)	128 µM (≈ 124 µg/mL)	128 µM (≈ 124 µg/mL)	64 µM (≈ 62.1 µg/mL)	128 µM (≈ 124 µg/mL)	128 µM (≈ 124 µg/mL)	128 µM (≈ 124 µg/mL)	128 µM (≈ 124 µg/mL)	CCCCCC(=O)NCCCC[C@H](NC(=O)CCCCC)C(=O)N[C@@H](CCCCN)C(=O)N[C@@H](CCCCN)C(=O)N[C@@H](Cc1c[nH]c2ccccc12)C(=O)N[C@@H](Cc1c[nH]c2ccccc12)C(N)=O (Hexanoyl-K(Hexanoyl)KKWW-NH2)
